Broadly, the Papp is the rate of passage across a membrane or cell layer, normalised by area and donor concentration. High values mean fast passage, low ones slow passage. What is called efflux ratio is a quotient of directional permeabilities that is used to spot active efflux. What is called IC50 is the midpoint of a concentration-inhibition curve.

Structures are written as SMILES. Counter-ions that a name gives are not always drawn.

Among the data in patent US12303509B2, “Compounds for the treatment of BRAF-associated diseases and disorders” (Pfizer Inc., priority 2020, dated 2025) are Papp, efflux ratio and IC50 values, retold here.

Data set [1] can be described thus: MDR1 LLC-PK1 and BCRP MDCKII permeability assay: permeability coefficient (Papp). Type of data set: in vitro ADME. An excerpt:
(§1) Final organic concentration in the assay was 1%.

Data set [2] concerns the target BCRP (Homo sapiens (Human), UniProt Q9UNQ0). Put plainly: BCRP MDCKII permeability assay: efflux ratio. Type of data set: in vitro ADME. The settings on record: dog.
The target in data set [3] is P-gp (MDR1) (Homo sapiens (Human), UniProt P08183). Put plainly: MDR1 LLC-PK1 permeability assay: efflux ratio. The data set is classed as in vitro ADME. The settings on record: pig.
Description: as §1

In data set [4] the target is full-length FLAG-tagged B-Raf(V600E) (Homo sapiens (Human), UniProt P15056, V600E). The experiment in a line: BRAF V600E enzyme assay (TR-FRET competitive displacement). The data set is classed as binding. The settings on record: averaged IC50; TR-FRET tracer displacement, 60 min. As for the experimental part:
A competitive displacement assay was configured for B-Raf that monitors the amount of a fluorescently-tagged “tracer” bound to B-Raf via TR-FRET from an anti-tag Eu-labeled antibody also bound to B-Raf. For full-length FLAG-tagged B-Raf(V600E), the assay mixtures consisted of 25 mM K^+HEPES, pH 7.4, 10 mM MgCl2, 0.01% Triton X-100, 1 mM DTT, 2% DMSO (from compound), 50 nM Tracer 1710 (ThermoFisher, PR9176A), 0.5 nM Eu anti-FLAG (M2)-cryptate Ab (Cisbio, 61FG2KLB) and 5 nM full-length, N-terminally FLAG-tagged B-Raf(V600E) (Origene Technologies, TP700031. Compounds were typically diluted in DMSO across an 11-point dosing range created using a 3-fold serial dilution protocol at a top dose of 10 μM. The assay was run in 384-well, polystyrene, low-volume, non-treated, white microtiter plates (Costar 4512) in a final volume of 12 μL. Low control wells included 1 μM of a potent B-Raf inhibitor as a control. The assays were incubated at ambient temperature (typically 22° C.) for 60 min and then read on a PerkinElmer EnVision microplate reader using standard TRF settings (λEx=320 nm, λEm=615 & 665 nm). The ratioed counts (665 nm/615 nm) were converted to percent of control (POC) using the following equation:
[formula] • where: • Xmax Average Uninhibited Controls • Xmin Average Background
A 4-parameter logistic model was the fit to the POC data for each compound. From that fit, the IC50 was estimated and is defined as the concentration of compound at which the best-fit curve crosses 50 POC.
A general note: TR-FRET usually uses a lanthanide donor and a delayed reading to cut background.

Data set [5] has as its system A375 cells. The experiment in a line: Cellular phospho-ERK inhibition assay in A375 cells. The data set is classed as cell-based. The settings on record: Homo sapiens, A-375, A375 cells (head prints A357), 2 hours treatment, read-out: A357 cell IC50. The procedure:
A375 and H1755 cells were obtained from the American Type Culture Collection (ATCC, Rockville, MD). A375 cells were maintained in DMEM growth medium containing 10% FBS. H1755 cells were maintained in RPMI growth medium containing 10% FBS.
Cells were harvested according to standard protocols, counted and plated onto flat-bottom, 96-well tissue culture plates (Costar #3599) at 2.5×10^4 cells/well for A375 cells and 1.5×10^4 cells/well for H1755 cells in 100 μL/well of growth medium containing 10% FBS. After an overnight incubation at 37° C. with 5% CO2 cells were treated for 2 hours at 37° C., 5% CO2 with compounds prepared as a 9-point, 1:3.33 fold dilution series with final compound concentrations ranging from 66 pM-10 μM and a constant DMSO concentration of 0.25%. Control wells contained either 0.25% DMSO alone (uninhibited control) or 10 μM binimetinib (complete inhibition control). The levels of phosphorylated ERK are determined using an In Cell Western protocol: following compound incubation, growth medium was discarded, and cells were fixed with 0.4% formaldehyde in PBS for 20 minutes at room temperature. Cells were permeabilized with 100% methanol for 10 minutes at room temperature. Plates were washed with PBS containing 0.05% Tween-20 and blocked for 1 hour at room temperature with LI-COR Blocking Buffer (LI-COR Biosciences; Cat #927-40000). Plates were then incubated for 2 hours at room temperature with 50 μL of a 1:400 dilution of anti-phospho-ERK1/2 (Thr202/Tyr204) (Cell Signaling; Cat #9101) and a 1:1000 dilution of anti-GAPDH (Millipore; Cat #MAB374) in LI-COR blocking buffer containing 0.05% Tween-20. Plates were washed with PBS containing […] Tween-20 then incubated at room temperature for 1 hour with 50 μL of a 1:1000 dilution of anti-rabbit AlexaFluor 680 (Life Technologies; Cat #A21109) and a 1:1000 dilution of anti-mouse IRDye 800CW (LI-COR; Cat #926-32210) in LI-COR blocking buffer containing 0.05% Tween-20. Plates were analyzed by reading on an Odyssey CLx infrared scanner. For each well, the phospho-ERK signal was normalized to the GAPDH signal and converted to POC using the following equation:
[formula] • Where: • Xmax Average Uninhibited Controls • Xmin Average Complete Inhibition Controls IC50 values were then calculated using a 4-parameter fit in XLfit software and are provided in Table A1.

Chain of P-gp (MDR1) (P08183 whole entry, species assumed): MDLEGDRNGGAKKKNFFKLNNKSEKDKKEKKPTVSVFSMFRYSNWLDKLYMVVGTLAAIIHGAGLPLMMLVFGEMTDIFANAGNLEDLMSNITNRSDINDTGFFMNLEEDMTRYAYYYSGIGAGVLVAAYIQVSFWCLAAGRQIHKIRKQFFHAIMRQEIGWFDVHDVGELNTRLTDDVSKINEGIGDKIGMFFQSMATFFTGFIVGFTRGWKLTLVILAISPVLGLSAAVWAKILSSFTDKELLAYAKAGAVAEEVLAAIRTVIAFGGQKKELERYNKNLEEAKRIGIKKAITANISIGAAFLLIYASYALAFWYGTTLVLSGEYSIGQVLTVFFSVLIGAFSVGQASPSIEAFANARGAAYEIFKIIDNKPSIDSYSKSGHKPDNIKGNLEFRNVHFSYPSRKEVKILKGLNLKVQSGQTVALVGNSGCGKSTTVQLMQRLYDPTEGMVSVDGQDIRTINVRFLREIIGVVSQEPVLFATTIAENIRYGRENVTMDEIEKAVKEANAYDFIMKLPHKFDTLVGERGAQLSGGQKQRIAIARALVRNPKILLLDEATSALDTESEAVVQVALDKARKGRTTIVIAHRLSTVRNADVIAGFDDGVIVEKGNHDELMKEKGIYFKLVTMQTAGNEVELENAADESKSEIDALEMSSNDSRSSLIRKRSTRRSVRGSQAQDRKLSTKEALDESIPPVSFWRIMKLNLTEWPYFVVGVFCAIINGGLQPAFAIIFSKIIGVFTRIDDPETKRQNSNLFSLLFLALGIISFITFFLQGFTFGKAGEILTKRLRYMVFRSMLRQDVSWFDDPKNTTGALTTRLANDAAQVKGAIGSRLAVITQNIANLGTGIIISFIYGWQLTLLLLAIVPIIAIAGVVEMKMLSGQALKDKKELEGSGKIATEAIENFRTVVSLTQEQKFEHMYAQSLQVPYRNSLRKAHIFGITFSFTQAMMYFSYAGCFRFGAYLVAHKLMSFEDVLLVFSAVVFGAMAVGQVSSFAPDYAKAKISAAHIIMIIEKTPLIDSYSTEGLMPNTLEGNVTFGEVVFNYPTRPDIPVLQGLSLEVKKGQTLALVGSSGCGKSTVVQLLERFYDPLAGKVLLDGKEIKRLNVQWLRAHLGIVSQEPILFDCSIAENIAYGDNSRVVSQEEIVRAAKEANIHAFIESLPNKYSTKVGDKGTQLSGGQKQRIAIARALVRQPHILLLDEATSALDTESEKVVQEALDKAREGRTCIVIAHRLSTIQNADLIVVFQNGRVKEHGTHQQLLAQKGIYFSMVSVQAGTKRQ
Chain of full-length FLAG-tagged B-Raf(V600E) (P15056 whole entry V600E): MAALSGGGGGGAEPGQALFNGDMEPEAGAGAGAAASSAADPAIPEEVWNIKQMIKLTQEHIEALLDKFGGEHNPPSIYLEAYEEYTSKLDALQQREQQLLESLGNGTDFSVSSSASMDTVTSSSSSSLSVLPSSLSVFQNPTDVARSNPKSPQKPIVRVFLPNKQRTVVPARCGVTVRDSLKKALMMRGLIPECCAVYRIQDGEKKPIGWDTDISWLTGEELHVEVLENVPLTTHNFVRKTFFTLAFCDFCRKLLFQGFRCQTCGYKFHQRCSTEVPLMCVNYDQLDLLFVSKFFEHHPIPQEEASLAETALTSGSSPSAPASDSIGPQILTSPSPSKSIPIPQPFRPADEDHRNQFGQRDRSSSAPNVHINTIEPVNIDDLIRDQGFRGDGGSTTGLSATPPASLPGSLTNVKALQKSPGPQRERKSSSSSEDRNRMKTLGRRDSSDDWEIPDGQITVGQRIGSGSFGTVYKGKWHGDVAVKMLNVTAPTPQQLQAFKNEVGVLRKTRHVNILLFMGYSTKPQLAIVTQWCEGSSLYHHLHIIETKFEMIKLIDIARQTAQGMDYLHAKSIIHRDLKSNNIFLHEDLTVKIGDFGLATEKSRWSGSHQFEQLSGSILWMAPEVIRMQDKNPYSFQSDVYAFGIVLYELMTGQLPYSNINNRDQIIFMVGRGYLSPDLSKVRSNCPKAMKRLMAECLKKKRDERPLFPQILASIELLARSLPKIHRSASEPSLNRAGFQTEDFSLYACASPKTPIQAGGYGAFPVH
Chain of BCRP (Q9UNQ0 whole entry): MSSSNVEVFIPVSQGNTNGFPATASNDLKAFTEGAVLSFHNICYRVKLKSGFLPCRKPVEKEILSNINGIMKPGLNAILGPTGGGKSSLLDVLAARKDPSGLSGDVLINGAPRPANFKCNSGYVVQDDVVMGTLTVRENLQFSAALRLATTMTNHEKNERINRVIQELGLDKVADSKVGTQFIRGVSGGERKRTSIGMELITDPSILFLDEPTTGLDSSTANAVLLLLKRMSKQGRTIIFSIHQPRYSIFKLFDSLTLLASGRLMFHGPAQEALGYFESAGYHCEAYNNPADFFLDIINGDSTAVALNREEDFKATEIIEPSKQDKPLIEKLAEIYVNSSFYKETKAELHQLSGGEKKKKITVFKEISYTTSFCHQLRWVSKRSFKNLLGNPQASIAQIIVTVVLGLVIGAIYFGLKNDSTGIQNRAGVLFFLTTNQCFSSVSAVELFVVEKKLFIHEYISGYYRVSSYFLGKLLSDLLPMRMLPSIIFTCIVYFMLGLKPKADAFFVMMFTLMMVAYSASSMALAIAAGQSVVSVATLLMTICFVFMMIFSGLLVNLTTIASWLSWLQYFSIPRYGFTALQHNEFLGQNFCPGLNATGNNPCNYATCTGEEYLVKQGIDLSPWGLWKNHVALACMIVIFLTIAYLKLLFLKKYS

In data set [1], `COCC1CN(S(=O)(=O)Nc2ccc(F)c(Oc3ccc4ncn(C)c(=O)c4c3C)c2Cl)C1` [Example 115, N-(2-chloro-3-((3,5-dimethyl-4-oxo-3,4-dihydroquinazolin-6-yl)oxy)-4-fluorophenyl)-3-(methoxymethyl)azetidine-1-sulfonamide] gave an apparent permeability (Papp) at 2 h, 1 µM of 28 ×10⁻⁶ cm/s. Also, the efflux ratio at 2 h, 1 µM in data set [2] worked out at 1.5; in data set [3], 1.6. The 50% inhibitory concentration (IC50) in data set [4] was found to be 10 nM; in data set [5], 21 nM.

In data set [1], `Cc1c(Oc2c(F)ccc(NS(=O)(=O)N3CC(F)C3)c2Cl)ccc2ncn(C)c(=O)c12` [Example 116, N-(2-chloro-3-((3,5-dimethyl-4-oxo-3,4-dihydroquinazolin-6-yl)oxy)-4-fluorophenyl)-3-fluoroazetidine-1-sulfonamide] yielded a Papp at 2 h, 1 µM of 34 ×10⁻⁶ cm/s. Also, the values for the efflux ratio at 2 h, 1 µM in data set [2] and in data set [3] were 2.1 and 2.7, respectively. Further, the figures for the IC50 in data set [4] and in data set [5] were 4 nM and 15 nM, respectively.

`COC1CN(S(=O)(=O)Nc2ccc(F)c(Oc3ccc4ncn(C)c(=O)c4c3C)c2Cl)C1` [Example 117, N-(2-chloro-3-((3,5-dimethyl-4-oxo-3,4-dihydroquinazolin-6-yl)oxy)-4-fluorophenyl)-3-methoxyazetidine-1-sulfonamide]: the Papp at 2 h, 1 µM in data set [1] came out at 30 ×10⁻⁶ cm/s. Moreover, the efflux ratio at 2 h, 1 µM in data set [2] and in data set [3] was 1.5 throughout. Besides, the IC50 was 11 nM in data set [4] and 23 nM in data set [5].

As to `Cn1cnc2ccc(Oc3c(F)ccc(NS(=O)(=O)N4CC(F)C4)c3Cl)c(F)c2c1=O` [Example 122, N-(2-chloro-4-fluoro-3-((5-fluoro-3-methyl-4-oxo-3,4-dihydroquinazolin-6-yl)oxy)phenyl)-3-fluoroazetidine-1-sulfonamide], the Papp at 2 h, 1 µM in data set [1] was 31 ×10⁻⁶ cm/s. The efflux ratio at 2 h, 1 µM in data set [2] worked out at 7.8; in data set [3], 2.3. Besides, the IC50 in data set [4] was found to be 2 nM; in data set [5], 3 nM.

The molecule `COC1CN(S(=O)(=O)Nc2ccc(F)c(Oc3ccc4ncn(C)c(=O)c4c3F)c2Cl)C1` [Example 123, N-(2-chloro-4-fluoro-3-((5-fluoro-3-methyl-4-oxo-3,4-dihydroquinazolin-6-yl)oxy)phenyl)-3-methoxyazetidine-1-sulfonamide] displayed a Papp at 2 h, 1 µM in data set [1] of 32 ×10⁻⁶ cm/s. For the same molecule, the efflux ratio at 2 h, 1 µM worked out at 5.4 in data set [2] and 2.5 in data set [3]. Moreover, the IC50 in data set [4] turned out to be 4 nM; in data set [5], 5 nM.

As for `Cc1c(Nc2c(F)ccc(NS(=O)(=O)N3CC(COC(F)F)C3)c2Cl)ccc2ncn(C)c(=O)c12` [Example 137, N-(2-chloro-3-((3,5-dimethyl-4-oxo-3,4-dihydroquinazolin-6-yl)amino)-4-fluorophenyl)-3-((difluoromethoxy)methyl)azetidine-1-sulfonamide trifluoroacetate], the Papp at 2 h, 1 µM in data set [1] worked out at 36 ×10⁻⁶ cm/s. The efflux ratio at 2 h, 1 µM amounted to 1.5 in data set [2] and 2 in data set [3]. Moreover, the IC50 in data set [4] was determined as 8 nM; in data set [5], 37 nM.

As to `COCC1(C)CN(S(=O)(=O)Nc2ccc(F)c(Nc3ccc4ncn(C)c(=O)c4c3C)c2Cl)C1` [Example 140, N-(2-chloro-3-((3,5-dimethyl-4-oxo-3,4-dihydroquinazolin-6-yl)amino)-4-fluorophenyl)-3-(methoxymethyl)-3-methylazetidine-1-sulfonamide trifluoroacetate], in data set [1], the Papp at 2 h, 1 µM stood at 48 ×10⁻⁶ cm/s. Also, the efflux ratio at 2 h, 1 µM stood at 0.8 in data set [2] and 1.2 in data set [3]. The IC50 stood at 16 nM in data set [4] and 52 nM in data set [5].

In data set [1], `CCOC1CN(S(=O)(=O)Nc2ccc(F)c(Nc3ccc4ncn(C)c(=O)c4c3Cl)c2Cl)C1` [Example 141, N-(2-chloro-3-((5-chloro-3-methyl-4-oxo-3,4-dihydroquinazolin-6-yl)amino)-4-fluorophenyl)-3-ethoxyazetidine-1-sulfonamide] gave a Papp at 2 h, 1 µM of 29 ×10⁻⁶ cm/s. Moreover, the efflux ratio at 2 h, 1 µM in data set [2] amounted to 2.2; in data set [3] it was 1.7. Besides, the values for the IC50 in data set [4] and in data set [5] were 20 nM and 23 nM, respectively.

Consider `CCOC1CN(S(=O)(=O)Nc2ccc(F)c(Nc3ccc4ncn(C)c(=O)c4c3F)c2Cl)C1` [Example 142, N-(2-chloro-4-fluoro-3-((5-fluoro-3-methyl-4-oxo-3,4-dihydroquinazolin-6-yl)amino)phenyl)-3-ethoxyazetidine-1-sulfonamide], for which the Papp at 2 h, 1 µM in data set [1] is 21 ×10⁻⁶ cm/s. For the same molecule, the figures for the efflux ratio at 2 h, 1 µM in data set [2] and in data set [3] were 2.5 and 3.2, respectively. Besides, the IC50 is 24 nM in data set [4] and 20 nM in data set [5].

In data set [1], `COCC1(F)CN(S(=O)(=O)Nc2ccc(F)c(Nc3ccc4ncn(C)c(=O)c4c3C)c2Cl)C1` [Example 145, N-(2-chloro-3-((3,5-dimethyl-4-oxo-3,4-dihydroquinazolin-6-yl)amino)-4-fluorophenyl)-3-fluoro-3-(methoxymethyl)azetidine-1-sulfonamide trifluoroacetate] yielded a Papp at 2 h, 1 µM of 29 ×10⁻⁶ cm/s. In addition, the efflux ratio at 2 h, 1 µM in data set [2] amounted to 2.4; in data set [3], 2.6. For the same molecule, the half-inhibitory concentration (IC50) in data set [4] came out at 6 nM; in data set [5] it was 25 nM.

`Cn1cnc2ccc(Nc3c(F)ccc(NS(=O)(=O)N4CC5(CCC5)C4)c3Cl)c(Cl)c2c1=O` [Example 158, N-(2-chloro-3-((5-chloro-3-methyl-4-oxo-3,4-dihydroquinazolin-6-yl)amino)-4-fluorophenyl)-2-azaspiro[3.3]heptane-2-sulfonamide trifluoroacetate] showed a Papp at 2 h, 1 µM in data set [1] of 26 ×10⁻⁶ cm/s. Besides, the efflux ratio at 2 h, 1 µM was determined as 1.1 in data set [2] and 1.5 in data set [3]. Further, the IC50 stood at 8 nM in data set [4] and 156 nM in data set [5].

As for `Cn1cnc2ccc(Nc3c(F)ccc(NS(=O)(=O)N4CC5(CCC5)C4)c3Cl)c(F)c2c1=O` [Example 159, N-(2-chloro-4-fluoro-3-((5-fluoro-3-methyl-4-oxo-3,4-dihydroquinazolin-6-yl)amino)phenyl)-2-azaspiro[3.3]heptane-2-sulfonamide trifluoroacetate], the Papp at 2 h, 1 µM in data set [1] amounted to 33 ×10⁻⁶ cm/s. The efflux ratio at 2 h, 1 µM in data set [2] was 1.1; in data set [3], 1.8. Moreover, the results for the IC50 in data set [4] and in data set [5] were 8 nM and 90 nM, respectively.

Regarding `CCOC1CN(S(=O)(=O)Nc2ccc(F)c(Nc3ccc4ncn(C)c(=O)c4c3C)c2Cl)C1` [Example 160, N-(2-chloro-3-((3,5-dimethyl-4-oxo-3,4-dihydroquinazolin-6-yl)amino)-4-fluorophenyl)-3-ethoxyazetidine-1-sulfonamide], the Papp at 2 h, 1 µM in data set [1] was found to be 38 ×10⁻⁶ cm/s. Moreover, the efflux ratio at 2 h, 1 µM in data set [2] and in data set [3] was 1.3 each time. For the same molecule, the values for the IC50 in data set [4] and in data set [5] were 33 nM and 87 nM, respectively.
